In PubChem BioAssay AID2060348 (Molecular Pharmacology Branch, DTP, NCI, 2025):

Tested on: 885724-159-R-J1-PDC spheroids viability
Assay: Anticancer human tumor 885724-159-R-J1-PDC patient-derived pancreatic adenocarcinoma cell line growth inhibition [TAK]
Settings: spheroids with HUVEC and MSC; for IC50: curve of first compound; for viability, T/C: stronger effect = lower value
Method in brief: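 Drug combinations, each paired with TAK-243 or ipatasertib, were tested on multi-cell spheroids of 60% malignant cells, 25% HUVEC and 15% hMSC. Top concentrations were at or near the clinical Cmax (10 microM if undetermined), decreasing by half-log; viability is given as % test/control.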

[1] = second compound 0.3 µM, first compound 0.0316 µM
[2] = second compound 0.3 µM, first compound 0.1 µM
[3] = second compound 0.3 µM, first compound 0.316 µM
[4] = second compound 0.3 µM, first compound 1 µM
[5] = second compound 0.3 µM, first compound 3.16 µM
[6] = second compound 0.3 µM, first compound 10 µM
[7] = second compound 0.949 µM, first compound 0.0316 µM
[8] = second compound 0.949 µM, first compound 0.1 µM
[9] = second compound 0.949 µM, first compound 0.316 µM
[10] = second compound 0.949 µM, first compound 1 µM
[11] = second compound 0.949 µM, first compound 3.16 µM
[12] = second compound 0.949 µM, first compound 10 µM
[13] = second compound 3 µM, first compound 0.0316 µM
[14] = second compound 3 µM, first compound 0.1 µM
[15] = second compound 3 µM, first compound 0.316 µM
[16] = second compound 3 µM, first compound 1 µM
[17] = second compound 3 µM, first compound 3.16 µM
[18] = second compound 3 µM, first compound 10 µM
[19] = second compound 9.49 µM, first compound 0.0316 µM
[20] = second compound 9.49 µM, first compound 0.1 µM
[21] = second compound 9.49 µM, first compound 0.316 µM
[22] = second compound 9.49 µM, first compound 1 µM
[23] = second compound 9.49 µM, first compound 3.16 µM
[24] = second compound 9.49 µM, first compound 10 µM
[25] = second compound 30 µM, first compound 0.0316 µM
[26] = second compound 30 µM, first compound 0.1 µM
[27] = second compound 30 µM, first compound 0.316 µM
[28] = second compound 30 µM, first compound 1 µM
[29] = second compound 30 µM, first compound 3.16 µM
[30] = second compound 30 µM, first compound 10 µM
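Note: spheroids exposed to drugs for seven days.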
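Throughout, for viability, T/C: 100% = DMSO vehicle control viability.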

Compound: CC(C)(C)c1nc(-c2cccc(NS(=O)(=O)c3c(F)cccc3F)c2F)c(-c2ccnc(N)n2)s1 + CC(C)NCC(C(=O)N1CCN(c2ncnc3c2C(C)CC3O)CC1)c1ccc(Cl)cc1
- IC50 (second compound 0.3 µM): > 10 µM
- IC50 (second compound 0.949 µM): > 10 µM
- IC50 (second compound 3 µM): > 10 µM
- IC50 (second compound 9.49 µM): 8.87 µM
- IC50 (second compound 30 µM): < 0.0316 µM
- viability, T/C [1]: 85.2%
- viability, T/C [2]: 101%
- viability, T/C [3]: 112%
- viability, T/C [4]: 134%
- viability, T/C [5]: 134%
- viability, T/C [6]: 121%
- viability, T/C [7]: 72.3%
- viability, T/C [8]: 100%
- viability, T/C [9]: 111%
- viability, T/C [10]: 117%
- viability, T/C [11]: 92.2%
- viability, T/C [12]: 80.5%
- viability, T/C [13]: 68.2%
- viability, T/C [14]: 90.7%
- viability, T/C [15]: 94%
- viability, T/C [16]: 96%
- viability, T/C [17]: 73.4%
- viability, T/C [18]: 57.6%
- viability, T/C [19]: 57.1%
- viability, T/C [20]: 71.3%
- viability, T/C [21]: 77%
- viability, T/C [22]: 76.1%
- viability, T/C [23]: 56.1%
- viability, T/C [24]: 49.3%
- viability, T/C [25]: 37.7%
- viability, T/C [26]: 41.3%
- viability, T/C [27]: 46.9%
- viability, T/C [28]: 42.7%
- viability, T/C [29]: 41.6%
- viability, T/C [30]: 37.7%

Compound: CC(C)n1nc(-c2ccc3oc(N)nc3c2)c2c(N)ncnc21 + CC(C)NCC(C(=O)N1CCN(c2ncnc3c2C(C)CC3O)CC1)c1ccc(Cl)cc1
- IC50 (second compound 0.3 µM): 0.0185 µM
- IC50 (second compound 0.949 µM): 0.00688 µM
- IC50 (second compound 3 µM): 0.00315 µM
- IC50 (second compound 9.49 µM): < 0.000316 µM
- IC50 (second compound 30 µM): < 0.000316 µM
- viability, T/C (second compound 0.3 µM, first compound 0.000316 µM): 66.2%
- viability, T/C (second compound 0.3 µM, first compound 0.001 µM): 64.1%
- viability, T/C (second compound 0.3 µM, first compound 0.00316 µM): 56.8%
- viability, T/C (second compound 0.3 µM, first compound 0.01 µM): 53.9%
- viability, T/C [1]: 48.6%
- viability, T/C [2]: 37.1%
- viability, T/C (second compound 0.949 µM, first compound 0.000316 µM): 57.2%
- viability, T/C (second compound 0.949 µM, first compound 0.001 µM): 63.5%
- viability, T/C (second compound 0.949 µM, first compound 0.00316 µM): 54%
- viability, T/C (second compound 0.949 µM, first compound 0.01 µM): 47.5%
- viability, T/C [7]: 38.4%
- viability, T/C [8]: 33.6%
- viability, T/C (second compound 3 µM, first compound 0.000316 µM): 58.1%
- viability, T/C (second compound 3 µM, first compound 0.001 µM): 61.8%
- viability, T/C (second compound 3 µM, first compound 0.00316 µM): 47.7%
- viability, T/C (second compound 3 µM, first compound 0.01 µM): 38.8%
- viability, T/C [13]: 31.5%
- viability, T/C [14]: 28.6%
- viability, T/C (second compound 9.49 µM, first compound 0.000316 µM): 47.4%
- viability, T/C (second compound 9.49 µM, first compound 0.001 µM): 45.6%
- viability, T/C (second compound 9.49 µM, first compound 0.00316 µM): 38.3%
- viability, T/C (second compound 9.49 µM, first compound 0.01 µM): 30.9%
- viability, T/C [19]: 25.5%
- viability, T/C [20]: 23%
- viability, T/C (second compound 30 µM, first compound 0.000316 µM): 32%
- viability, T/C (second compound 30 µM, first compound 0.001 µM): 29.5%
- viability, T/C (second compound 30 µM, first compound 0.00316 µM): 30.2%
- viability, T/C (second compound 30 µM, first compound 0.01 µM): 20.5%
- viability, T/C [25]: 19%
- viability, T/C [26]: 16.4%

Compound: CCCS(=O)(=O)Nc1ccc(F)c(C(=O)c2c[nH]c3ncc(-c4ccc(Cl)cc4)cc23)c1F + CC(C)NCC(C(=O)N1CCN(c2ncnc3c2C(C)CC3O)CC1)c1ccc(Cl)cc1
- IC50 (second compound 0.3 µM): > 100 µM
- IC50 (second compound 0.949 µM): > 100 µM
- IC50 (second compound 3 µM): 25.1 µM
- IC50 (second compound 9.49 µM): 8.75 µM
- IC50 (second compound 30 µM): < 0.316 µM
- viability, T/C [3]: 79.3%
- viability, T/C [4]: 93.8%
- viability, T/C [5]: 104%
- viability, T/C [6]: 89.7%
- viability, T/C (second compound 0.3 µM, first compound 31.6 µM): 99.7%
- viability, T/C (second compound 0.3 µM, first compound 100 µM): 105%
- viability, T/C [9]: 66.1%
- viability, T/C [10]: 78.4%
- viability, T/C [11]: 76.2%
- viability, T/C [12]: 74.2%
- viability, T/C (second compound 0.949 µM, first compound 31.6 µM): 34.7%
- viability, T/C (second compound 0.949 µM, first compound 100 µM): 76.6%
- viability, T/C [15]: 66.4%
- viability, T/C [16]: 71.8%
- viability, T/C [17]: 67.1%
- viability, T/C [18]: 63.9%
- viability, T/C (second compound 3 µM, first compound 31.6 µM): 34.2%
- viability, T/C (second compound 3 µM, first compound 100 µM): 58.8%
- viability, T/C [21]: 58.5%
- viability, T/C [22]: 58.4%
- viability, T/C [23]: 58.6%
- viability, T/C [24]: 48.9%
- viability, T/C (second compound 9.49 µM, first compound 31.6 µM): 13.4%
- viability, T/C (second compound 9.49 µM, first compound 100 µM): 47.2%
- viability, T/C [27]: 37.5%
- viability, T/C [28]: 40.9%
- viability, T/C [29]: 36.6%
- viability, T/C [30]: 12.8%
- viability, T/C (second compound 30 µM, first compound 31.6 µM): 3.55%
- viability, T/C (second compound 30 µM, first compound 100 µM): 23.1%
